Assay results as given in paper PMC11069587, “An Elastin-like Polypeptide-fusion peptide targeting capsid-tegument interface as an antiviral against cytomegalovirus infection” (Scientific Reports, 2024).
Where no end group is shown, it is not given here.

What was measured:
uninfected MEFs = assay: Cell viability of uninfected MEFs, trypan blue exclusion; settings: 80 μM, mock-infected, 3 days
Method: Cells were harvested at 3 dpi, and cell viability was assessed by trypan blue exclusion assay for both uninfected and infected groups. The standard error of the mean from three different experiments were plotted as error bars.
MEFs were plated in 24-well tissue-culture plates and grown to confluency in triplicates. […] At 3 dpi, the CMC (carboxymethylcellulose) + DMEM overlay was removed. The cells were then harvested by trypsinization to determine the cell viability using trypan blue exclusion with a TC20 automated cell counter (BioRad Laboratories, Hercules, CA, USA) following the manufacturer’s protocol. […] The cells were washed twice with PBS and overlayed with CMC + DMEM and incubated for 3 days. […] The percentage of cell survival was plotted for different treatment groups, and data were analyzed by one-way ANOVA using Tukey post hoc test.

HIV = tested on: HIV; design: method as in PMID 8312047; settings: cited from earlier work
Hepatitis B and D = tested on: Hepatitis B and D; design: method as in PMID 20007265; settings: cited from earlier work
[1] = Organ biodistribution by ex vivo whole-organ fluorescence imaging in mice; design: species or system mouse (Balb/c); settings: rhodamine-labeled, subcutaneous, 4 h post-injection, ex vivo IVIS imaging, female mice n = 4
Method: (§1) Plasma pharmacokinetics (a) were determined for 72 h after injection. In a separate cohort of mice (females, n = 4 per group), major organ biodistribution was determined 4 h after injection by ex vivo whole-organ fluorescence imaging (b and c). The standard deviations were plotted as error bars.
(§2) Blood samples were collected from the tail vein at different time points and centrifuged to collect plasma. […] For the biodistribution, a separate cohort of mice (female, n = 4 per group) were euthanized four hours after the injection with proteins or saline control, and the brain, spleen, liver, lungs, kidneys, and heart were harvested and assessed by ex-vivo whole organ imaging using the In Vivo Imaging System (IVIS, Perkin Elmer). […] To determine pharmacokinetic parameters, plasma concentrations during the clearance phase (from the peak of the plasma concentration curve) were fit using a two-compartment pharmacokinetic model as described previously using GraphPad Prism[32].

[2] = Plasma pharmacokinetics of rhodamine-labeled constructs in mice; format: in vivo, mouse (Balb/c)
Method: as §1, §2

Molecule: Nc1nc(O)c2ncn(COC(CO)CO)c2n1 [GCV, ganciclovir]
- cell viability of uninfected MEFs (uninfected MEFs): not affected

Molecule: Enfuvirtide
- IC50 (HIV): nanomolar range

Molecule: Myrcludex B
- concentrations at which efficacy was demonstrated (Hepatitis B and D): picomolar concentrations

Molecule: NKLVYTGRL [P10]
- accumulation in the kidneys [1]: much lower levels than ELP-P10
- accumulation in the liver [1]: much lower levels than ELP-P10
- Area Under Curve ([2]; 500 nmol/Kg subcutaneous, female mice n = 4 per group, plasma fluorescence over 72 h): 1185 ± 383 µM·h
- time after which clearance from plasma began ([2]; subcutaneous, mouse plasma): 2 h
